# Reference: patent US11339110B2, “Efficient crystallization process for preparing ultrapure Treprostinil and crystal prepared therefrom” (CHIROGATE INTERNATIONAL INC., priority 2019, dated 2022)
# What was measured:
# Assay type in all cases: physicochemical
# [1] = Filterability of Treprostinil crystal (microfiltration, pressure change during filtering); conditions: 100 ml sample solution, 25±1° C., 0.22 μm hydrophilic PVDF membrane
# Protocol: The filterability of sample solution is numerical estimated by the pressure changes inside the microfiltration assemblies during filtering. The microfiltration assemblies with 47 mm fritted glass, 0.22 μm hydrophilic PVDF filter membrane, 250 ml bottle, PANCHUM VP-900 dry pump, and an external pressure gauge were settled for tracing the pressure changes during filtration. The usage volume of sample solution for filtering was set as 100 ml and the filtering temperature was set as 25±1° C. for comparing the filterability of samples in a similar experimental condition.
# Sample of crystalline Form I of anhydrous Treprostinil in ethyl acetate (containing 3% v/v water) was prepared from Example 5, and the concentration is about 0.05 g/ml. Sample of crystalline Form A of anhydrous Treprostinil in acetonitrile was prepared as disclosed by U.S. Pat. No. 9,278,903 Example 12, and the concentration is about 0.02 g/ml. […] The pressure changes of pure ethyl acetate, pure acetonitrile, crystalline Form I of anhydrous Treprostinil in ethyl acetate (containing 3% v/v water), crystalline Form A of anhydrous Treprostinil in acetonitrile, and monohydrated Treprostinil crystal in ethanol/water during filtration were measured and the results am shown in FIG. 10.
# [2] = Stability of Treprostinil in ethanol (UPLC tracing of ethyl ester and dimers); conditions: 40±1° C.; for Treprostinil / Treprostinil dimer-1 (IT201d1) / Treprostinil dimer-2 (IT201d2) / Treprostinil ethyl ester (IT201e2): 1.00 g in 5 ml ethanol, UPLC
# Protocol: (§1) Ultra Performance Liquid Chromatography (UPLC) Analysis: The UPLC spectra were collected on a Waters ACQUITY UPLC instrument. The conditions were shown as the following: The sample is diluted to 1 mg/ml by […] (v/v) acetonitrile/H2O. The column is Waters BEH C18, 1.7 μm, 2.1*150 mm. The mobile phase is 60/40 (v/v) buffer/acetonitrile from 0 to 10 min, gradient changes of buffer/acetonitrile from 60/40 to 5/95 (v/v) (curve 6) from 10 to 20 min, 5/95 (v/v) buffer/acetonitrile from 20 to 25 min, gradient changes of buffer/acetonitrile from 5/95 to 0/100 (v/v) (curve 6) from 25 to 30 min, 0/100 (v/v) buffer/acetonitrile from 30 to 35 min. Buffer solution is pH 3.0 aqueous solution adjusted by trifluoroacetic acid. The flow rate is set as 0.42 ml/min. Column temperature is set as 45° C., sample temperature is set as 25° C. Injection is 1.5 μL. Run time is 35 min. UV detector is set as 210 nm.
# 1.00 g Treprostinil was dissolved in 5 ml ethanol in a glass vial at room temperature to form a homogenous solution, which was stirred at 40±1° C. oil bath and periodically sampled to UPLC measurement for tracing the formation of Treprostinil ethyl ester and Treprostinil dimers.
# [3] = Stability of Treprostinil stored in a glass vial at 40° C. (UPLC tracing of ethyl ester and dimers); conditions: 40±1° C.; for Treprostinil / Treprostinil dimer-1 (IT201d1) / Treprostinil dimer-2 (IT201d2): no solvent, glass vial, UPLC
# Protocol: as §1
# […] Treprostinil was placed in a glass vial and stirred at 40±1° C. oil bath and periodically sampled to UPLC measurement for tracing the formation of Treprostinil ethyl ester and Treprostinil dimers.
structure (smiles),measurement,setting,value
CCCCC[C@H](O)CC[C@@H]1[C@H]2Cc3cccc(OCC(=O)O)c3C[C@H]2C[C@H]1O [Treprostinil],finish time of filtration,[1]; 47 mm fritted glass,about 92 seconds
same,solution filtered,[1]; until about 180 seconds,~80%
same,Treprostinil,[2]; time 0 h,99.88%
same,Treprostinil dimer-1 (IT201d1),[2]; time 0 h,0.04%
same,Treprostinil dimer-2 (IT201d2),[2]; time 0 h,0.06%
same,Treprostinil ethyl ester (IT201e2),[2]; time 0 h,0.02%
same,Treprostinil,[2]; time 2 h,99.50%
same,Treprostinil dimer-1 (IT201d1),[2]; time 2 h,0.04%
same,Treprostinil dimer-2 (IT201d2),[2]; time 2 h,0.07%
same,Treprostinil ethyl ester (IT201e2),[2]; time 2 h,0.39%
same,Treprostinil,[2]; time 4 h,99.07%
same,Treprostinil dimer-1 (IT201d1),[2]; time 4 h,0.06%
same,Treprostinil dimer-2 (IT201d2),[2]; time 4 h,0.06%
same,Treprostinil ethyl ester (IT201e2),[2]; time 4 h,0.81%
same,Treprostinil,[2]; time 6 h,98.68%
same,Treprostinil dimer-1 (IT201d1),[2]; time 6 h,0.07%
same,Treprostinil dimer-2 (IT201d2),[2]; time 6 h,0.07%
same,Treprostinil ethyl ester (IT201e2),[2]; time 6 h,1.18%
same,Treprostinil,[2]; time 8 h,98.15%
same,Treprostinil dimer-1 (IT201d1),[2]; time 8 h,0.10%
same,Treprostinil dimer-2 (IT201d2),[2]; time 8 h,0.11%
same,Treprostinil ethyl ester (IT201e2),[2]; time 8 h,1.64%
same,Treprostinil,[2]; time 10 h,97.73%
same,Treprostinil dimer-1 (IT201d1),[2]; time 10 h,0.12%
same,Treprostinil dimer-2 (IT201d2),[2]; time 10 h,0.11%
same,Treprostinil ethyl ester (IT201e2),[2]; time 10 h,2.04%
same,Treprostinil,[2]; time 12 h,97.41%
same,Treprostinil dimer-1 (IT201d1),[2]; time 12 h,0.13%
same,Treprostinil dimer-2 (IT201d2),[2]; time 12 h,0.09%
same,Treprostinil ethyl ester (IT201e2),[2]; time 12 h,2.37%
same,formation rate of Treprostinil dimers,[2]; dissolved in ethanol,about 0.01 % per hour
same,formation rate of Treprostinil ethyl ester,[2]; dissolved in ethanol,about 0.2 % per hour
same,formation rate of Treprostinil dimers,[3]; Treprostinil stored without solvent,about 0.01 % per hour
same,Treprostinil,[3]; time 0 h,99.90%
same,Treprostinil dimer-1 (IT201d1),[3]; time 0 h,0.04%
same,Treprostinil dimer-2 (IT201d2),[3]; time 0 h,0.06%
same,Treprostinil,[3]; time 2 h,99.89%
same,Treprostinil dimer-1 (IT201d1),[3]; time 2 h,0.06%
same,Treprostinil dimer-2 (IT201d2),[3]; time 2 h,0.05%
same,Treprostinil,[3]; time 4 h,99.88%
same,Treprostinil dimer-1 (IT201d1),[3]; time 4 h,0.06%
same,Treprostinil dimer-2 (IT201d2),[3]; time 4 h,0.06%
same,Treprostinil,[3]; time 6 h,99.84%
same,Treprostinil dimer-1 (IT201d1),[3]; time 6 h,0.07%
same,Treprostinil dimer-2 (IT201d2),[3]; time 6 h,0.08%
same,Treprostinil,[3]; time 8 h,99.83%
same,Treprostinil dimer-1 (IT201d1),[3]; time 8 h,0.08%
same,Treprostinil dimer-2 (IT201d2),[3]; time 8 h,0.09%
same,Treprostinil,[3]; time 10 h,99.79%
same,Treprostinil dimer-1 (IT201d1),[3]; time 10 h,0.09%
same,Treprostinil dimer-2 (IT201d2),[3]; time 10 h,0.12%
same,Treprostinil,[3]; time 12 h,99.77%
same,Treprostinil dimer-1 (IT201d1),[3]; time 12 h,0.10%
same,Treprostinil dimer-2 (IT201d2),[3]; time 12 h,0.13%
